pIC50: −log10 of the molar value. Read-outs that look alike come from different tables or passages of the source.
Columns and labels:
[1] = system: L1 wild-type C. elegans; experiment: whole plant or invertebrate; conditions: Caenorhabditis elegans, 15 h, read-out: C. elegans KCN Survival Assay LC50
[2] = system: ben-1 mutant (ECA882) C. elegans; experiment: microbe, parasite or virus in culture; conditions: Caenorhabditis elegans; for viability at 1 µM / viability at 2 µM / viability at 3.9 µM / viability at 15.6 µM / viability at 31.3 µM / viability at 62.5 µM / viability at 125 µM / viability at 250 µM / viability at 500 µM / viability at 1000 µM: read-out: C. elegans ben-1(e1880) development/viability
How it was run: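 L1 larvae (~2 worms/μL in M9) in liquid NGM with 2-fold concentrated E. coli HB101, compound at 1% DMSO, 6 days at 20 °C shaking 165 rpm. Well images scored as summed worm-associated pixels, normalized to DMSO controls; relative viability averaged over at least three biological replicates.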

[3] = in vitro; conditions: human; for viability at 2 days, 3.13 µM / viability at 2 days, 6.25 µM / viability at 2 days, 12.5 µM / viability at 2 days, 25 µM / viability at 2 days, 50 µM / viability at 2 days, 100 µM: HEK293 cells (Flp-In-293), HEK293 viability
[4] = target: B. taurus (heart) complex I (Bos taurus, UniProt P03887+P17694+P42026); experiment: biochemical; format: biochemical; conditions: for pIC50: B. taurus heart mitochondria, read-out: B. taurus Complex I IC50; for activity at 0.0001 µM / activity at 0.0005 µM / activity at 0.001 µM / activity at 0.0025 µM / activity at 0.005 µM / activity at 0.013 µM / activity at 0.025 µM / activity at 0.063 µM / activity at 0.125 µM / activity at 0.313 µM / activity at 0.625 µM / activity at 1.5 µM / activity at 3 µM / activity at 15 µM / activity at 37.5 µM / activity at 75 µM: read-out: B. taurus mitochondrial complex I activity; for Log IC50 B. taurus complex I: log10 of IC50 in µM, B. taurus mitochondria
How it was run: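 Complex I activity followed as DCIP reduction (600 nm, 30 s reads, 15 min) with 80 μM NADH and 60 μM decylubiquinone in 25 mM KPi pH 7.5 containing 2 μM antimycin A and 2 mM KCN. Freeze-thawed mouse or bovine heart mitochondria at 0.2 mg/mL; initial-rate percent of solvent control, single-point 100 μM or dose-response.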

[5] = read-out: C. elegans (ben-1) Development & Viability Assay LC50
[6] = read-out: C. elegans ben-1 log10 LC50 (converted)
[7] = HEK293 Cell Viability Assay LC50, HEK293 cells, estimated from fitted dose-response curves
[8] = HEK293 Cell Viability Assay LC50, HEK293 cells, estimated from fitted dose-response curves, mean of at least two biological replicates
[9] = estimated from fitted dose-response curves

Chain of B. taurus (heart) complex I (P03887 whole entry): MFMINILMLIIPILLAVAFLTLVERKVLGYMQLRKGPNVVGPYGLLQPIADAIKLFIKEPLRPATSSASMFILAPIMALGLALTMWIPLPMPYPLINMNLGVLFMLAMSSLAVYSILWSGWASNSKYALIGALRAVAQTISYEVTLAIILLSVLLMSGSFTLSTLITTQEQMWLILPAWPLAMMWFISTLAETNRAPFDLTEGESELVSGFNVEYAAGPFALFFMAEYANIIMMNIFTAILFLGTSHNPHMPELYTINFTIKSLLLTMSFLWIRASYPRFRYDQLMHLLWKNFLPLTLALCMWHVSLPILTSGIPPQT
Chain of B. taurus (heart) complex I (P17694 34-463): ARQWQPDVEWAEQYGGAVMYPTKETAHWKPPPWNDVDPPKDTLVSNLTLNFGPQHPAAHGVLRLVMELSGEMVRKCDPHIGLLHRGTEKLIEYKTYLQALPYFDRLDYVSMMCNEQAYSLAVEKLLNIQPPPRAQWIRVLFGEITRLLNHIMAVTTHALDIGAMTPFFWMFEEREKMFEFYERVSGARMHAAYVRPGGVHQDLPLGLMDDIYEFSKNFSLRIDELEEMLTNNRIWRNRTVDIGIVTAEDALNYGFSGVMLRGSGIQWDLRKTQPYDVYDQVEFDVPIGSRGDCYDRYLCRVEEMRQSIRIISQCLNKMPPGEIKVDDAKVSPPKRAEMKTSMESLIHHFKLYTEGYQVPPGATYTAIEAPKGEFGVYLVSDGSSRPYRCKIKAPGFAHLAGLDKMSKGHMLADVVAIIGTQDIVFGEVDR
Chain of B. taurus (heart) complex I (P42026 38-216): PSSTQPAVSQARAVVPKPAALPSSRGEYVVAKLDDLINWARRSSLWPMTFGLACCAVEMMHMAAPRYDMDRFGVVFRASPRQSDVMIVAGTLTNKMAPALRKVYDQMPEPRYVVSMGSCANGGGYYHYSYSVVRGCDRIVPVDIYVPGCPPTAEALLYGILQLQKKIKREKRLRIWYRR

Compound | LC50 [2, 5] [µM] | LC50 [2, 6] [µM] | viability at 2 days, 3.13 µM [3] [%] | viability at 2 days, 6.25 µM [3] [%] | viability at 2 days, 25 µM [3] [%] | viability at 2 days, 50 µM [3] [%] | viability at 2 days, 100 µM [3] [%] | activity at 0.0001 µM [4] [%] | activity at 0.0005 µM [4] [%] | activity at 0.001 µM [4] [%] | activity at 0.0025 µM [4] [%] | activity at 0.005 µM [4] [%] | activity at 0.013 µM [4] [%] | activity at 0.025 µM [4] [%] | activity at 0.063 µM [4] [%] | activity at 0.125 µM [4] [%] | activity at 0.313 µM [4] [%] | activity at 0.625 µM [4] [%] | activity at 1.5 µM [4] [%] | Log IC50 B. taurus complex I [4] [µM] | also measured
Cc1cc(O)c2c(c1)O[C@@]1(C)CC[C@H]3C(C)(C)CCC[C@]34CO[C@@H]2[C@H]41 [Siccanin] |  |  |  |  |  |  |  |  |  |  |  |  |  |  |  |  |  |  |  |  | LC50 [1]: 6.3 µM
CCc1cc(OCCn2cnc3ccccc32)ccc1Cl [Compound 7925288] | 55.2 | 55.2 | 91.4 | 96.8 | 81.1 | 8.7 | 7.1 | 89.8 | 91.3 | 88.8 | 86.3 | 84.5 | 89.2 | 82.7 | 84.2 | 82.8 | 79.8 | 84.6 | 75.4 | 0.76 | viability at 1 µM [2]: 100%; viability at 2 µM [2]: 96%; viability at 3.9 µM [2]: 96.4%; viability at 15.6 µM [2]: 94.7%; viability at 31.3 µM [2]: 88%; viability at 62.5 µM [2]: 39.9%; viability at 125 µM [2]: 3.8%; viability at 250 µM [2]: 3.3%; viability at 500 µM [2]: 2.9%; viability at 1000 µM [2]: 1.8%; CC50 at 2 days [3, 7]: 34.1 µM; viability at 2 days, 12.5 µM [3]: 93.6%; pIC50 [4]: 5.24; activity at 3 µM [4]: 61.1%; activity at 15 µM [4]: 17.7%; activity at 37.5 µM [4]: 2.74%; activity at 75 µM [4]: 1.27%
Brc1ccccc1OCCCCn1cnc2ccccc21 [Compound 7924576] | 58.6 | 58.6 | 96.3 | 98.1 | 82.8 | 40.2 | 6.9 | 104 | 101 | 108 | 104 | 101 | 102 | 102 | 96.3 | 84.6 | 74.3 | 68 | 44.1 | 0.0569 | viability at 1 µM [2]: 99.9%; viability at 2 µM [2]: 91.7%; viability at 3.9 µM [2]: 96.6%; viability at 15.6 µM [2]: 87.8%; viability at 31.3 µM [2]: 65.5%; viability at 62.5 µM [2]: 54%; viability at 125 µM [2]: 3.7%; viability at 250 µM [2]: 4.7%; viability at 500 µM [2]: 2.1%; viability at 1000 µM [2]: 0.7%; CC50 at 2 days [3, 8]: 44.3 µM; pIC50 [4, 9]: 5.94; activity at 3 µM [4]: 32%; activity at 15 µM [4]: 6.52%; activity at 37.5 µM [4]: 3.45%; activity at 75 µM [4]: 3.05%
Cc1nc2ccccc2n1Cc1ccc(Cl)c(Cl)c1 [Compound 5655567] | 85.3 | 85.3 | 100 | 100 | 88.9 | 72.1 | 15.5 | 91.2 | 90.2 | 95.5 | 94.9 | 95.5 | 85.5 | 82.4 | 79.8 | 78.8 | 62.7 | 60.2 | 41.5 | 0.07 | viability at 1 µM [2]: 99.9%; viability at 2 µM [2]: 97.1%; viability at 3.9 µM [2]: 100%; viability at 15.6 µM [2]: 100%; viability at 31.3 µM [2]: 99.5%; viability at 62.5 µM [2]: 84.2%; viability at 125 µM [2]: 10.6%; viability at 250 µM [2]: 16.7%; CC50 at 2 days [3, 8]: 64.5 µM; viability at 2 days, 12.5 µM [3]: 100%; pIC50 [4, 9]: 5.93; activity at 3 µM [4]: 23.2%; activity at 15 µM [4]: 1.19%; activity at 37.5 µM [4]: 0.14%; activity at 75 µM [4]: 0.62%
CCCOc1ccc(Cn2cnc3ccccc32)cc1 [Compound 7355741] | 85.3 | 85.3 | 99.8 | 100 | 100 | 78.9 | 30.3 | 95.3 | 97.8 | 102 | 105 | 102 | 104 | 109 | 57.4 | 101 | 97.1 | 86 | 75.9 | 0.49 | CC50 at 2 days [3, 8]: 76.2 µM; viability at 2 days, 12.5 µM [3]: 100%; pIC50 [4, 9]: 5.51; activity at 3 µM [4]: 37%; activity at 15 µM [4]: 13.2%; activity at 37.5 µM [4]: 1.26%; activity at 75 µM [4]: 2.32%
Nc1nc2ccccc2n1Cc1ccc(Br)cc1 [Compound 7313068] | 63.1 | 63.1 |  |  |  |  |  |  |  |  |  |  |  |  |  |  |  |  |  | 0.12 | CC50 at 2 days [3, 8]: 41.7 µM; pIC50 [4, 9]: 5.88
Nc1nc2ccccc2n1CCOc1ccc(Br)cc1 [Compound 5842535] | 41.1 | 41 | 79.2 | 82.9 | 11 | 6.3 | 6.3 | 89.6 | 91.9 | 90.7 | 94.2 | 96.1 | 92.4 | 87.8 | 92.4 | 92 | 85.5 | 84.7 | 82.8 | 1.10 | viability at 1 µM [2]: 99.9%; viability at 2 µM [2]: 100%; viability at 3.9 µM [2]: 97.9%; viability at 15.6 µM [2]: 100%; viability at 31.3 µM [2]: 85.9%; viability at 62.5 µM [2]: 5.7%; viability at 125 µM [2]: 6%; CC50 at 2 days [3, 7]: 17.3 µM; viability at 2 days, 12.5 µM [3]: 67.8%; pIC50 [4]: 4.90; activity at 3 µM [4]: 67.2%; activity at 15 µM [4]: 33.6%; activity at 37.5 µM [4]: 3.2%; activity at 75 µM [4]: 1.7%
Cc1ccc2nc(C(C)c3ccc(CC(C)C)cc3)[nH]c2c1 (stereo not drawn) [STL482096] | > 1000 | > 500 |  |  |  |  |  |  |  |  |  |  |  |  |  |  |  |  |  | 1.09 | LC50 ([2]; read-out: C. elegans ben-1 LC50): > 500 µM; CC50 at 2 days [3]: < 12.5 µM; pIC50 [4, 9]: 4.91
Clc1ccc(OCCn2cnc3ccccc32)c(Cl)c1 [Compound 7221649] | 37.2 | 37.2 | 100 | 100 | 100 | 61.2 | 7.3 | 92.5 | 88.5 | 89.7 | 97.8 | 98.8 | 94.3 | 92 | 90.2 | 86.5 | 88 | 83.9 | 85.6 | 1.03 | viability at 1 µM [2]: 86.6%; viability at 2 µM [2]: 85.6%; viability at 3.9 µM [2]: 87.8%; viability at 15.6 µM [2]: 91.2%; viability at 31.3 µM [2]: 64.6%; viability at 62.5 µM [2]: 3.9%; viability at 125 µM [2]: 37.3%; CC50 at 2 days [3, 7]: 55.3 µM; viability at 2 days, 12.5 µM [3]: 100%; pIC50 [4]: 4.97; activity at 3 µM [4]: 77.8%; activity at 15 µM [4]: 33%; activity at 37.5 µM [4]: 7.81%; activity at 75 µM [4]: 3.92%
CC(C)Cc1ccc(C(C)c2nc3ccccc3n2C(C)C)cc1 (stereo not drawn) [STK951903] | 731 | 731 |  |  |  |  |  |  |  |  |  |  |  |  |  |  |  |  |  | 1.17 | CC50 at 2 days [3, 7]: 29.2 µM; pIC50 [4]: 4.83
Cc1ccc(Cn2c(C)nc3ccccc32)cc1 [Compound 5651984] | 108 | 108 |  |  |  |  |  |  |  |  |  |  |  |  |  |  |  |  |  | -0.00436 | CC50 at 2 days [3, 8]: 95.4 µM; pIC50 [4, 9]: 6.00

Source: paper PMC11079024, “Identification of a family of species-selective complex I inhibitors as potential anthelmintics” (Nature Communications, 2024)
